Columns and labels:
hair follicle cultures = conditions: between ATP and adenosine; cited from earlier work
AGA Model = assay: Macroscopic blind assessment of hair growth in DHT-induced AGA model mice (Example 5); format: in vivo, C57BL6 mice (males); conditions: male mice, day 21, intradermal on day 0 and day 3, ATP 100 μM
Method: The compositions for promoting hair growth of the invention were tested in vivo in mice, according to the following procedure.
A total of 45 6-week-old C57BL6 mice (males) from Charles River Laboratories were used.
The animals were acclimatized for 6 days, and they were administered 1 mg of DHT (5α-androstan-17β-ol-3-one, Sigma) in 100 μL of 50% DMSO (Merck)/50% Isotonic Saline Serum (Fresenius Kabi) subcutaneously for […] (5 days a week), resulting 19 administrations, instead of 20, because the dose was omitted on day 21, when the final assessment of hair growth took place. The administration of DHT began at day-4 of the testing.
The concentration of ATP in Groups 3, 4, 5 and 6 was 100 μM.
After 4 days of administration of the DHT solution (day 0), the target area was depilated using an electric shaver in the area delimited by a template. Subsequently, depilatory cream was applied with the aim of uniformizing the beginning of the anagen phase in all mice. This procedure was performed using inhalation sedation with 2% Isoflurane, maintaining the body temperature of the animals with an electric blanket and an infrared lamp. (FIG. 1). […]

androgen receptors = conditions: hair follicles; cited from earlier work

Nc1ncnc2c1ncn2[C@@H]1O[C@H](CO)[C@@H](O)[C@H]1O [adenosine]
synergistic action on hair growth of hair follicle cultures (hair follicle cultures): synergistic action

Nc1ncnc2c1ncn2[C@@H]1O[C@H](COP(=O)(O)OP(=O)(O)OP(=O)(O)O)[C@@H](O)[C@H]1O [ATP non-encapsulated, adenosine triphosphate]
hair growth level: Intense (% of mice) (AGA Model; ADSCs high 4 × 10^6, low 1 × 10^6): 80%
hair growth level: Moderate (% of mice) (AGA Model; ADSCs high 4 × 10^6): 20%

Nc1ncnc2c1ncn2[C@@H]1O[C@H](COP(=O)(O)OP(=O)(O)OP(=O)(O)O)[C@@H](O)[C@H]1O [ATP, adenosine triphosphate]
synergistic action on hair growth of hair follicle cultures (hair follicle cultures): synergistic action

C[C@]12CCC(=O)C[C@@H]1CC[C@@H]1[C@@H]2CC[C@]2(C)[C@@H](O)CC[C@@H]12 [DHT, 5α-androstan-17β-ol-3-one]
affinity towards androgen receptors (androgen receptors): higher affinity towards androgen receptors in the hair follicles
